Columns and labels:
Assay in all cases: In vitro kinase activity
Type in all cases: biochemical
JNK3 = JNK3 (Homo sapiens, UniProt P53779); settings: percentage of control assays without compound, mean of duplicate
Procedure: (§1) To better understand the mechanism of action of the compounds of the present invention, but in no way a limitation; the effects of HSB-13 and ASK-2a on 20 different kinases were examined in vitro. At 500 nM concentration, ASK-2a inhibited the kinase activities of GSK3α, GSK3β, p38α, p38β, JNK3, MLK3, and B-Raf substantially. […] As described above, ASK-2a protects cerebellar granule neurons against LK-induced death but is ineffective against HCA-induced toxicity of HT-22 cells. In contrast, HSB-13 is protective in both paradigms. […] Previous studies have established that CDK inhibitors can protect neurons against a number of different apoptotic stimuli.
(§2) The activity of each kinase was measured in vitro in the presence either 100 nM or 500 nM ASK-2a. Kinase activity is expressed as a percentage of that in control assays (without ASK-2a). The values are mean of assays performed in duplicate. Substantial inhibition of kinase activity (>20%) is in bold type.
(§3) Table 3: Effect of HSB-13 at 500 nM on 20 different kinases measured in vitro. Kinase activity is expressed as a percentage of that in control assays (without HSB-13). The values are mean of assays performed in duplicate. Substantial inhibition of kinase activity (>20%) is in bold type.

CDK1/Cylcin A1 = CDK1/Cylcin A1 (Homo sapiens, UniProt P06493); settings: percentage of control assays without compound, mean of duplicate
Procedure: as §1, §2, §3

CDK1/Cyclin B1 = CDK1/Cyclin B1 (Homo sapiens, UniProt P06493); settings: percentage of control assays without compound, mean of duplicate
Procedure: as §1, §2, §3

MLK3 = MLK3 (Homo sapiens, UniProt Q16584); settings: 100 nM, percentage of control assays without compound, mean of duplicate
Procedure: as §1, §2, §3

p38α = p38α (Homo sapiens, UniProt Q16539); settings: percentage of control assays without compound, mean of duplicate
Procedure: as §1, §2, §3

GSK3β = GSK3β (Homo sapiens, UniProt P49841); settings: percentage of control assays without compound, mean of duplicate
Procedure: as §1, §2, §3

MEKK1 = MEKK1 (Homo sapiens, UniProt Q13233); settings: percentage of control assays without compound, mean of duplicate
Procedure: as §1, §2, §3

CDK2/Cyclin A1 = CDK2/Cyclin A1 (Homo sapiens, UniProt P24941); settings: percentage of control assays without compound, mean of duplicate
Procedure: as §1, §2, §3

CDK6/Cyclin D3 = CDK6/Cyclin D3 (Homo sapiens, UniProt Q00534); settings: percentage of control assays without compound, mean of duplicate
Procedure: as §1, §2, §3

CDK5/p25 = CDK5/p25 (Homo sapiens, UniProt Q00535); settings: percentage of control assays without compound, mean of duplicate
Procedure: as §1, §2, §3

GSK3α = GSK3α (Homo sapiens, UniProt P49840); settings: percentage of control assays without compound, mean of duplicate
Procedure: as §1, §2, §3

LRRK2 = LRRK2 (Homo sapiens, UniProt Q5S007); settings: percentage of control assays without compound, mean of duplicate
Procedure: as §1, §2, §3

JNK2 = JNK2 (Homo sapiens, UniProt P45984); settings: percentage of control assays without compound, mean of duplicate
Procedure: as §1, §2, §3

c-Raf = target: T1, c-Raf (Homo sapiens, UniProt P04049); settings: percentage of control assays without compound, mean of duplicate
T1 construct: in some cases SignalChem; host or cells: Sf9 insect cells (baculovirus)
Procedure: as §1, §2, §3
(§4) Effect of chemical compounds c-Raf and B-Raf purified from insect cells. In vitro kinase assays were performed using purified kinase (expressed by baculovirus in Sf9 insect cells) and synthetic substrates under standard conditions using the Kinase Profiling service of Upstate Biotechnology. Briefly, for each assay 5-10 mU of purified kinase is incubated with the chemical compound (0.1-1 uM concentration) in a buffer containing 8 mM MOPS, pH 7.2, 0.2 mM EDTA, 10 mM Mg Acetate and [γ-^33P-ATP] for 40 min at room temperature. MBP is used as substrate. Kinase activity is quantified by measuring ^33P incorporation by spotting an aliquot on P30 filters, washing in 50 mM phosphoric acid and scintillation counting.
(§5) In some cases, effects on c-Raf and B-Raf are assayed by SignalChem as follows. Protein kinase assays (in duplicate or triplicate) were performed at ambient temperature for 20-40 minutes in a final volume of 25 μl. The assay was initiated by the addition of ^33P-ATP and the reaction mixture incubated at ambient temperature for 20-40 minutes, depending on the protein kinase target. After the incubation period, the assay was terminated by spotting 10 μl of the reaction mixture onto Multiscreen phosphocellulose P81 plate. The Multiscreen phosphocellulose P81 plate was washed 3 times for approximately 15 minutes each in a 1% phosphoric acid solution.
(§6) The radioactivity on the P81 plate was counted in the presence of scintillation fluid in a Trilux scintillation counter. Blank control is included all the assay components except the addition of the appropriate substrate (replace with equal volume of assay dilution buffer), was set up for each protein kinase target. The corrected activity for each protein kinase target was determined by removing the blank control value.

B-Raf = target: T2, B-Raf (Homo sapiens, UniProt P15056); settings: percentage of control assays without compound, mean of duplicate
T2 construct: in some cases SignalChem; host or cells: Sf9 insect cells (baculovirus)
Procedure: as §1, §2, §3, §4, §5, §6

[1] = 100 nM, listed as ASK2a, 0.1 µM

Chain of JNK2 (P45984 whole entry, species assumed): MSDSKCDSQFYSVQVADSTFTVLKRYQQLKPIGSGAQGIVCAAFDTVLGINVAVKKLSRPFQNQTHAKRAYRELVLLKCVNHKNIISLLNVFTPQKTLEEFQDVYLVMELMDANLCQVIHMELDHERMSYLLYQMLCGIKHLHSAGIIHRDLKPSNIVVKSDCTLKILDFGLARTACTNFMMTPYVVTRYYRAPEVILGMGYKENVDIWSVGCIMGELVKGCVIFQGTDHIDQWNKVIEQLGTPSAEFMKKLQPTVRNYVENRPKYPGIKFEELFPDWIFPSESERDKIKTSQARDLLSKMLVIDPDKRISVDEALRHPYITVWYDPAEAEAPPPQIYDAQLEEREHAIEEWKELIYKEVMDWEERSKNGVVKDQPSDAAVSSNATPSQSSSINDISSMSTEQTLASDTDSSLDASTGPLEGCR
Chain of p38α (Q16539 whole entry): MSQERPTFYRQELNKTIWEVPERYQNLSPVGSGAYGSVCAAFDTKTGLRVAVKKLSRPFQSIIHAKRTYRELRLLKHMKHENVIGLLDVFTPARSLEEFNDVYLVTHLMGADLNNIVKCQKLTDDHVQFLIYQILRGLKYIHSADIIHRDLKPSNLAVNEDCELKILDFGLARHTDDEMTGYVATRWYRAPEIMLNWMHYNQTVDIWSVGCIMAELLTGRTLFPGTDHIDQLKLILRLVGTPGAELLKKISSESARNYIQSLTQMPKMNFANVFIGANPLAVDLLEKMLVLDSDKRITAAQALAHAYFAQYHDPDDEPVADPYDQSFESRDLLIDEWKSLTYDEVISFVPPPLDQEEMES
T1 sequence (P04049 whole entry): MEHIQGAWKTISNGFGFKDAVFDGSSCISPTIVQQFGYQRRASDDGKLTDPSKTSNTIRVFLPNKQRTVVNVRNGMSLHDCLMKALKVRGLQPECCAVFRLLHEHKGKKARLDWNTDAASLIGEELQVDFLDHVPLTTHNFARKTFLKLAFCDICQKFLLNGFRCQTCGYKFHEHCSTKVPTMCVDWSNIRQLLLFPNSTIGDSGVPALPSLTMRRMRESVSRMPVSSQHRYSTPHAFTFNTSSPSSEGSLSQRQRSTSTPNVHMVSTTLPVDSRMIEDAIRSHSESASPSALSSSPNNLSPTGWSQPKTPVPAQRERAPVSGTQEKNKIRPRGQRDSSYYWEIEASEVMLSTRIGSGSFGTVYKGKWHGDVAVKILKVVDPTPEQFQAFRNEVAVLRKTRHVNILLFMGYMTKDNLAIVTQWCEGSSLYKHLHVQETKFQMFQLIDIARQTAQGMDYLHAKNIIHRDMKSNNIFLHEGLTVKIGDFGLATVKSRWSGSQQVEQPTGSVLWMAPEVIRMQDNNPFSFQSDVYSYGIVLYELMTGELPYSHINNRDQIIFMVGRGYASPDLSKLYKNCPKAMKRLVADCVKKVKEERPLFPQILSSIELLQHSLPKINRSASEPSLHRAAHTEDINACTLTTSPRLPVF
Chain of MLK3 (Q16584 whole entry, species assumed): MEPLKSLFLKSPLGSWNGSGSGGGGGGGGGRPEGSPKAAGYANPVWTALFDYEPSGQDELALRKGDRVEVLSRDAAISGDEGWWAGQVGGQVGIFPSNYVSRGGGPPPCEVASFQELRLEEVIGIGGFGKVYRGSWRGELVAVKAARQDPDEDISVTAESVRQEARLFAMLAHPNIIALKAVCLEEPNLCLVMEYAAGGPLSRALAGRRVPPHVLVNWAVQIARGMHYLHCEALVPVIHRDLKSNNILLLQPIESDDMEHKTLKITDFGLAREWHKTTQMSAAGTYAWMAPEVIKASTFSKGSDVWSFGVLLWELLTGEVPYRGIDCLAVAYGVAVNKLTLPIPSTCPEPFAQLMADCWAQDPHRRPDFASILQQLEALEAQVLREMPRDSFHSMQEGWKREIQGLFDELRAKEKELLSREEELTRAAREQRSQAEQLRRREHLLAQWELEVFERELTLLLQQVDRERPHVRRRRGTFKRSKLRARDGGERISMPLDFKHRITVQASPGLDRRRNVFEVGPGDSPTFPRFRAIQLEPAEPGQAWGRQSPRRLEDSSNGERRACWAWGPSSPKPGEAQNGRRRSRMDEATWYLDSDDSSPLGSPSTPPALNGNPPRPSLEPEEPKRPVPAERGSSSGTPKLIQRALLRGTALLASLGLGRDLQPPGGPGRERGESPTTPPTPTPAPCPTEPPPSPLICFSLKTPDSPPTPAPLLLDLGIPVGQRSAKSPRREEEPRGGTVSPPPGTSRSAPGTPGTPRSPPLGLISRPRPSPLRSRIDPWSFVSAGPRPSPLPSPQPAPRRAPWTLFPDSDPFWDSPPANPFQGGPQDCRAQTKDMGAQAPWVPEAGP
Chain of CDK5/p25 (Q00535 whole entry, species assumed): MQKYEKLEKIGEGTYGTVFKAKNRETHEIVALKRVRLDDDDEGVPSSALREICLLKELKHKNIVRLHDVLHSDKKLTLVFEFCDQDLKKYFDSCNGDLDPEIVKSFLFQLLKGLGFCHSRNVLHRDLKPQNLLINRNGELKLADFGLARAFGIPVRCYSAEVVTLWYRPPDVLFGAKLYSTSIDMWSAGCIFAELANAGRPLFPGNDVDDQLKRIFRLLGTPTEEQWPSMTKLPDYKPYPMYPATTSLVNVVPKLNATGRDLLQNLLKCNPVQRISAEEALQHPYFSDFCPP
Chain of CDK5/p25 (Q15078 99-307 partner limits assumed, species assumed): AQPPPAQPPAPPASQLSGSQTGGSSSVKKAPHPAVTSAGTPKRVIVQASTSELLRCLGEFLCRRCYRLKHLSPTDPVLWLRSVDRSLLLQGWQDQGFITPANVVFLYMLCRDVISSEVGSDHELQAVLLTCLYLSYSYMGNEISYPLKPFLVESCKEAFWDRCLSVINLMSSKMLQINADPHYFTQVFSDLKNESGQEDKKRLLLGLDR
T2 sequence (P15056 whole entry): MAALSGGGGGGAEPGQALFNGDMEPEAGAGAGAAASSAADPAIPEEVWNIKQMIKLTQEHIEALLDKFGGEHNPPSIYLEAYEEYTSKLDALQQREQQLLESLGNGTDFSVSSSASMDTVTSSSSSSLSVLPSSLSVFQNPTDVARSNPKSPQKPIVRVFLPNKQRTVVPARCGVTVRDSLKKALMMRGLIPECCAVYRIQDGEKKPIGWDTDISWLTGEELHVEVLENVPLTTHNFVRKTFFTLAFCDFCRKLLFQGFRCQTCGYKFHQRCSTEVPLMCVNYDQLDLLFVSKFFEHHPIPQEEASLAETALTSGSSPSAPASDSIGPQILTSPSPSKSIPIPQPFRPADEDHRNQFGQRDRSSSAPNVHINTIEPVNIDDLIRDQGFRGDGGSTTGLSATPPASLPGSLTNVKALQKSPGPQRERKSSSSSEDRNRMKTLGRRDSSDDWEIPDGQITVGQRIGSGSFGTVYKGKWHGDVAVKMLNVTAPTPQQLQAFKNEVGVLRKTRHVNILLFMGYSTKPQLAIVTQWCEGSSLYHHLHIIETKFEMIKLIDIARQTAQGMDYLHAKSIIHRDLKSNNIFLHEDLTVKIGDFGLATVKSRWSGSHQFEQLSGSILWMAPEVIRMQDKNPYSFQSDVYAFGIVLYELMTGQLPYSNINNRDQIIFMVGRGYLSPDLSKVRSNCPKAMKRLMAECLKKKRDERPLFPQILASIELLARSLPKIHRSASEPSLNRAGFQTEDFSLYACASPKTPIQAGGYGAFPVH
Chain of CDK1/Cyclin B1 (P06493 whole entry, species assumed): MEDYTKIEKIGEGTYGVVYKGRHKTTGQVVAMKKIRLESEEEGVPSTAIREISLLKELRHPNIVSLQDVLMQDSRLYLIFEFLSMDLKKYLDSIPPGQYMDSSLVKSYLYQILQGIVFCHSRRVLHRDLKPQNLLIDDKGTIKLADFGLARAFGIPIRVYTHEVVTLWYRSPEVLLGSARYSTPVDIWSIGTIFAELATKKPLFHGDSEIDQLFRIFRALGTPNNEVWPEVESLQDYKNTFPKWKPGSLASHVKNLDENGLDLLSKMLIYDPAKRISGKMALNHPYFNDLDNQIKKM
Chain of CDK1/Cyclin B1 (P14635 whole entry partner, species assumed): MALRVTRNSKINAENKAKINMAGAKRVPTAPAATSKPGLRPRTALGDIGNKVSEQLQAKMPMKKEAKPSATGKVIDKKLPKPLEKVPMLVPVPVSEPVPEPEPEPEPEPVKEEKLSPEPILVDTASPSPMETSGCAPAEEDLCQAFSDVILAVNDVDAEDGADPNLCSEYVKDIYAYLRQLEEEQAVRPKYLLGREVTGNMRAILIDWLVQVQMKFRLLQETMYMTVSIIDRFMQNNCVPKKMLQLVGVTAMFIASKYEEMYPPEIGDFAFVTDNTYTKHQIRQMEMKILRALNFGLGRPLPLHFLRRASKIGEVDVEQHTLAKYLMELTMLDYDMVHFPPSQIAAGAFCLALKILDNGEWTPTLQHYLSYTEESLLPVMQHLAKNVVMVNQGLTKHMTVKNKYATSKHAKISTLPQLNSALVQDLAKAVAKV
Chain of GSK3β (P49841 whole entry, species assumed): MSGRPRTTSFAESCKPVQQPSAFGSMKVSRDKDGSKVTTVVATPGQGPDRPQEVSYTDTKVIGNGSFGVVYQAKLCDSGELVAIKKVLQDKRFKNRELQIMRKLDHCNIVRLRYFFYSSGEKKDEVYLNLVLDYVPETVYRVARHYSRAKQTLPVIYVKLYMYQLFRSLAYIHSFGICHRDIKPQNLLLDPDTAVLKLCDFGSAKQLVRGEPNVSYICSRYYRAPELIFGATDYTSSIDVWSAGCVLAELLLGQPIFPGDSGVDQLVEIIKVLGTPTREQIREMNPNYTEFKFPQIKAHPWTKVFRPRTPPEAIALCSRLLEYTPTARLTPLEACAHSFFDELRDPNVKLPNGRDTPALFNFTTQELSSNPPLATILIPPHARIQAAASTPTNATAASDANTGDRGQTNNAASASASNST

`O=C1Nc2ccccc2OC1=Cc1cc(Br)c(O)c(Br)c1` [ASK-2a] was tested, and the “% ACTIVITY” value (JNK3; 100 nM, 0.1 µM) was 94%, the “% ACTIVITY” value (JNK3; [1]) was “inhibited efficiently” and the “% ACTIVITY” value (CDK1/Cylcin A1; 100 nM) was 101%. For the same molecule, the “% ACTIVITY” value (CDK1/Cylcin A1; 500 nM) was 88%, the “% ACTIVITY” value (CDK1/Cyclin B1; 100 nM) was 91% and the “% ACTIVITY” value (CDK1/Cyclin B1; 500 nM) was 98%. The “% ACTIVITY” value (MLK3; 0.1 µM) was 88%, the “% ACTIVITY” value (MLK3; listed as ASK2a, 0.1 µM) was “inhibited less efficiently” and the “% ACTIVITY” value (p38α; 100 nM, 0.1 µM) was 76%. The “% ACTIVITY” value (p38α; [1]) was “inhibited efficiently”, the “% ACTIVITY” value (GSK3β; 100 nM, 0.1 µM) was 55% and the “% ACTIVITY” value (GSK3β; [1]) was “inhibited efficiently”. The “% ACTIVITY” value (MEKK1; 100 nM) was 100%, the “% ACTIVITY” value (MEKK1; 500 nM) was 98% and the “% ACTIVITY” value (CDK2/Cyclin A1; 100 nM) was 104%. The “% ACTIVITY” value (CDK2/Cyclin A1; 500 nM) was 100%, the “% ACTIVITY” value (CDK6/Cyclin D3; 100 nM) was 104% and the “% ACTIVITY” value (CDK6/Cyclin D3; 500 nM) was 99%. The “% ACTIVITY” value (CDK5/p25; 100 nM) was 100%, the “% ACTIVITY” value (CDK5/p25; 500 nM) was 96% and the “% ACTIVITY” value (GSK3α; 100 nM, 0.1 µM) was 71%. The “% ACTIVITY” value (GSK3α; [1]) was “inhibited efficiently”, the “% ACTIVITY” value (LRRK2; 100 nM) was 96% and the “% ACTIVITY” value (LRRK2; 500 nM) was 94%. For the same molecule, the “% ACTIVITY” value (JNK2; 100 nM) was 95%, the “% ACTIVITY” value (JNK2; 500 nM) was 93% and the “% ACTIVITY” value (c-Raf; 100 nM) was 92%. The “% ACTIVITY” value (c-Raf; 500 nM) was 88%, the “% ACTIVITY” value (B-Raf; 100 nM, 0.1 µM) was 79% and the “% ACTIVITY” value (B-Raf; [1]) was “inhibited efficiently”.

`Nc1ccc2c(c1)NC(=O)/C(=C/c1cc(Br)c(O)c(Br)c1)O2` [HSB-13, (Z)-6-amino-2-(3,′5′-dibromo-4′-hydrozybenzylidene)-2H-benzo[b][1,4]oxazin-3(4H)-one] was tested, and the “% ACTIVITY” value (JNK3; 100 nM) was 92%, the “% ACTIVITY” value (JNK3; 500 nM) was 92% and the “% ACTIVITY” value (CDK1/Cylcin A1; 100 nM) was 95%. The “% ACTIVITY” value (CDK1/Cyclin B1; 100 nM) was 90%, the “% ACTIVITY” value (MLK3) was 94% and the “% ACTIVITY” value (p38α; 100 nM) was 88%. For the same molecule, the “% ACTIVITY” value (p38α; 500 nM) was 43%, the “% ACTIVITY” value (GSK3β; 500 nM) was 19% and the “% ACTIVITY” value (MEKK1; 100 nM) was 99%. The “% ACTIVITY” value (MEKK1; 500 nM) was 98%, the “% ACTIVITY” value (CDK2/Cyclin A1; 100 nM) was 82% and the “% ACTIVITY” value (CDK6/Cyclin D3; 100 nM) was 99%. For the same molecule, the “% ACTIVITY” value (CDK6/Cyclin D3; 500 nM) was 89%, the “% ACTIVITY” value (CDK5/p25; 100 nM) was 84% and the “% ACTIVITY” value (GSK3α; 500 nM) was 23%. The “% ACTIVITY” value (LRRK2; 100 nM) was 97%, the “% ACTIVITY” value (LRRK2; 500 nM) was 88% and the “% ACTIVITY” value (JNK2; 100 nM) was 98%. The “% ACTIVITY” value (c-Raf; 100 nM) was 97% and the “% ACTIVITY” value (B-Raf; 500 nM) was 43%.

Source: patent publication US8680094B2, “1, 4-benzoxazine compounds and derivatives thereof as therapeutic drugs for the treatment of neurodegenerative conditions” (Board of Regents, The University of Texas System, priority 2008, dated 2014)
